In publication PMC5540273, “Progress towards a public chemogenomic set for protein kinases and a call for contributions” (PLoS ONE, 2017):

Experiments:
Test in all cases: KINOMEscan competition binding
[1] = target: T1, IKK-beta (Homo sapiens, UniProt O14920); conditions: read-out: %Inh IKK-beta
T1 sequence (O14920 1-756): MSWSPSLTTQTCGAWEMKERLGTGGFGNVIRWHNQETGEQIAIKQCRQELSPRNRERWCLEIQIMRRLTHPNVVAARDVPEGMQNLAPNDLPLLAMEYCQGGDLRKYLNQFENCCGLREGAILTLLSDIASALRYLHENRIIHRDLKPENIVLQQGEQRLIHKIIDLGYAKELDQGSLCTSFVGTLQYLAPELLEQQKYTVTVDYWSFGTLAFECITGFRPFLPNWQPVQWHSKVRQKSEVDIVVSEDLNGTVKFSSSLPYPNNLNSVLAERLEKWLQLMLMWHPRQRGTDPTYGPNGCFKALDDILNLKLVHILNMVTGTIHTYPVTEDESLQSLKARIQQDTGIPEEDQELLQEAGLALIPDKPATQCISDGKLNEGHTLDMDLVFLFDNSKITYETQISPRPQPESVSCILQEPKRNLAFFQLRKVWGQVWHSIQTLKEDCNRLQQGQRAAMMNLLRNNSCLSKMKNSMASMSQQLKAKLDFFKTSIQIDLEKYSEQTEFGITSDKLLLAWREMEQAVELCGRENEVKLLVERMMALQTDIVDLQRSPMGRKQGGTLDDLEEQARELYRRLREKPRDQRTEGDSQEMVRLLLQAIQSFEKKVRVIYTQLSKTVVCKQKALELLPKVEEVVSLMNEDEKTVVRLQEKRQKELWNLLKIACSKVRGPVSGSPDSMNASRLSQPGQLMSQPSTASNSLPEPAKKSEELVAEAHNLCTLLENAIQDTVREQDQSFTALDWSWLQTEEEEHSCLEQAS

[2] = target: CAMK2G (Homo sapiens, UniProt Q13555); conditions: read-out: %Inh CAMK2G
[3] = target: ABL2 (Homo sapiens, UniProt P42684); conditions: read-out: %Inh ABL2
[4] = target: T2, AURKA (Homo sapiens, UniProt O14965); conditions: read-out: %Inh AURKA
T2 sequence (O14965 1-403): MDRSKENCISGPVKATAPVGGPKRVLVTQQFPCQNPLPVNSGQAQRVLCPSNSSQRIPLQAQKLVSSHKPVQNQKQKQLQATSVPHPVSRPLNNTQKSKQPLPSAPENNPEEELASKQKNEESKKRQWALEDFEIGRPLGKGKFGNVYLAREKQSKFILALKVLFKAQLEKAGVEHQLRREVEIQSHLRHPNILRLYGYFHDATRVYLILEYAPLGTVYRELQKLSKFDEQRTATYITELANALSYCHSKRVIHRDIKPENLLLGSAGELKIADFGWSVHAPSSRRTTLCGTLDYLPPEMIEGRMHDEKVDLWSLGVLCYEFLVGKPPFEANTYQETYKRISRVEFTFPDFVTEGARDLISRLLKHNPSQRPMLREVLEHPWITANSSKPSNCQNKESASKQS

[5] = target: GSK3B (Homo sapiens, UniProt P49841); conditions: read-out: %Inh GSK3B
[6] = target: ERBB3 (Homo sapiens, UniProt P21860); conditions: read-out: %Inh ERBB3
[7] = target: T3, ARK5 (Homo sapiens, UniProt O60285); conditions: read-out: %Inh ARK5
T3 sequence (O60285 1-661): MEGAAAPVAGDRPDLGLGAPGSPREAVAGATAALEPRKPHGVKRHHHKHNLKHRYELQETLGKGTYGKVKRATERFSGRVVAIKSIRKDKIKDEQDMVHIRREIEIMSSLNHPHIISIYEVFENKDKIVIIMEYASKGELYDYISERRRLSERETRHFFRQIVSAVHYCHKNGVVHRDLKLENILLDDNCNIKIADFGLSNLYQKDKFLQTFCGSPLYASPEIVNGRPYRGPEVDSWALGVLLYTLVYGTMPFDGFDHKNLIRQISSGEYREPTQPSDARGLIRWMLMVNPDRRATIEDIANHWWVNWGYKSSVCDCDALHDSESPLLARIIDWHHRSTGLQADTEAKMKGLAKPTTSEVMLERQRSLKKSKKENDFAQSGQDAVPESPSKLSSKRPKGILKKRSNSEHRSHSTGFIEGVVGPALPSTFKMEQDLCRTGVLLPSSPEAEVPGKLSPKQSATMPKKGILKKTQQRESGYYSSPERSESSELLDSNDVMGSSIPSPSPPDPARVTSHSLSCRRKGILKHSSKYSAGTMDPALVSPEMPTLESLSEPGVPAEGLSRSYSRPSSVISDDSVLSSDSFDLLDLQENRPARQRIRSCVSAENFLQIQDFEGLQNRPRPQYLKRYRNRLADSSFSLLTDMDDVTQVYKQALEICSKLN

[8] = target: CAMK1D (Homo sapiens, UniProt Q8IU85); conditions: read-out: %Inh CAMK1D
CAMK1D, sequence (Q8IU85 whole entry): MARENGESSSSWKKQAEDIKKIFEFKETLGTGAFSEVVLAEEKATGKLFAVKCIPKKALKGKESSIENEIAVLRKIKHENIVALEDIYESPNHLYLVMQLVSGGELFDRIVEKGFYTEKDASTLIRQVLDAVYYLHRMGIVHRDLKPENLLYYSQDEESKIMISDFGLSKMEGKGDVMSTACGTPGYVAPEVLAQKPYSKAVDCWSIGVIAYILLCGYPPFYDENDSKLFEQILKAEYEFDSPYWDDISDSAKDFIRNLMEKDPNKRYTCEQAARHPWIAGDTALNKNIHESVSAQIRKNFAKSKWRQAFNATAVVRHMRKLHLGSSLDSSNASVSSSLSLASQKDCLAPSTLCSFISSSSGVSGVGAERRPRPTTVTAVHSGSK

ERBB3, sequence (P21860 20-1342): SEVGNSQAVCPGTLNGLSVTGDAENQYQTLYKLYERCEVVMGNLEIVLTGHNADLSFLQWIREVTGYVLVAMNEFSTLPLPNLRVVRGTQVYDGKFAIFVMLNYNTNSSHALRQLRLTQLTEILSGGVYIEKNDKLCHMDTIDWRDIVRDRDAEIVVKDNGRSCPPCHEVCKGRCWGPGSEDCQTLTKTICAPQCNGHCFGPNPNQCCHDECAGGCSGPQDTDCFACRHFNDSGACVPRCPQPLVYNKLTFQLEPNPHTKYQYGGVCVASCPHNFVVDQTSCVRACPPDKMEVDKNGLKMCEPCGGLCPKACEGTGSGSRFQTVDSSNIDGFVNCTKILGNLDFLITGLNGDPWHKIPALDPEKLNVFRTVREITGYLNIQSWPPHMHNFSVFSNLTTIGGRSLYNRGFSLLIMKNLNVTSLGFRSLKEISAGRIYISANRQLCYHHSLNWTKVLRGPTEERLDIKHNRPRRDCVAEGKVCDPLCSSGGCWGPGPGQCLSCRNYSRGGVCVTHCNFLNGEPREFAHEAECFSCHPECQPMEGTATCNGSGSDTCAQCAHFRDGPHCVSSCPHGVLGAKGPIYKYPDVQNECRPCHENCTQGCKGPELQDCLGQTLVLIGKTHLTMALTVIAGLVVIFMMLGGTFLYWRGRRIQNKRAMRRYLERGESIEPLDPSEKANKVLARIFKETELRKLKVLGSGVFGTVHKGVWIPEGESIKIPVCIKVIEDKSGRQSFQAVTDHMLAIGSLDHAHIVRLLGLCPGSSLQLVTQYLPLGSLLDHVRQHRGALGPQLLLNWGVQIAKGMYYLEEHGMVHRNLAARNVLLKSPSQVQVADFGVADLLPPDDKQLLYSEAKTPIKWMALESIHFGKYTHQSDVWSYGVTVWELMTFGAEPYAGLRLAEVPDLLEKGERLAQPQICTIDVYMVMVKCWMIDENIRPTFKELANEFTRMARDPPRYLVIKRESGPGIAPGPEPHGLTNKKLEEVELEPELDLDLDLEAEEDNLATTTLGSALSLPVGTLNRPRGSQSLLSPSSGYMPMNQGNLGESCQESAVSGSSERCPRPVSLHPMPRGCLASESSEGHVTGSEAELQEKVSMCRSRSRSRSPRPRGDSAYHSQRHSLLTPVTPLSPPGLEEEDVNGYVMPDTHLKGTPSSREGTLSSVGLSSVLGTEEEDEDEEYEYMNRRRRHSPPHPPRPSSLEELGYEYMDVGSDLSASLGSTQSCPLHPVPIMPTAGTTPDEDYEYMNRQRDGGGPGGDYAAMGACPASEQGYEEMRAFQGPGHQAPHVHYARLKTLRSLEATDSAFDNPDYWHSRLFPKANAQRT
GSK3B, sequence (P49841 whole entry): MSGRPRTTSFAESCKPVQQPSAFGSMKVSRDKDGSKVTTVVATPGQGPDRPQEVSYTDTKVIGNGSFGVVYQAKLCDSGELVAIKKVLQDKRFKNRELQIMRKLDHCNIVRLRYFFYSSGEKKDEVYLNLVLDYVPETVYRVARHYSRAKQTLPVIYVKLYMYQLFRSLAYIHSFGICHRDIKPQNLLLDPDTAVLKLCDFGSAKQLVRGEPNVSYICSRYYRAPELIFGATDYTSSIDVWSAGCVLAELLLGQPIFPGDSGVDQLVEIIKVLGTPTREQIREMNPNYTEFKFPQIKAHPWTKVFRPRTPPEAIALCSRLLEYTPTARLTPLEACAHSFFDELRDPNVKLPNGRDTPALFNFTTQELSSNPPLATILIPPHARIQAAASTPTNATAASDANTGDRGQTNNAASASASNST
ABL2, sequence (P42684 whole entry): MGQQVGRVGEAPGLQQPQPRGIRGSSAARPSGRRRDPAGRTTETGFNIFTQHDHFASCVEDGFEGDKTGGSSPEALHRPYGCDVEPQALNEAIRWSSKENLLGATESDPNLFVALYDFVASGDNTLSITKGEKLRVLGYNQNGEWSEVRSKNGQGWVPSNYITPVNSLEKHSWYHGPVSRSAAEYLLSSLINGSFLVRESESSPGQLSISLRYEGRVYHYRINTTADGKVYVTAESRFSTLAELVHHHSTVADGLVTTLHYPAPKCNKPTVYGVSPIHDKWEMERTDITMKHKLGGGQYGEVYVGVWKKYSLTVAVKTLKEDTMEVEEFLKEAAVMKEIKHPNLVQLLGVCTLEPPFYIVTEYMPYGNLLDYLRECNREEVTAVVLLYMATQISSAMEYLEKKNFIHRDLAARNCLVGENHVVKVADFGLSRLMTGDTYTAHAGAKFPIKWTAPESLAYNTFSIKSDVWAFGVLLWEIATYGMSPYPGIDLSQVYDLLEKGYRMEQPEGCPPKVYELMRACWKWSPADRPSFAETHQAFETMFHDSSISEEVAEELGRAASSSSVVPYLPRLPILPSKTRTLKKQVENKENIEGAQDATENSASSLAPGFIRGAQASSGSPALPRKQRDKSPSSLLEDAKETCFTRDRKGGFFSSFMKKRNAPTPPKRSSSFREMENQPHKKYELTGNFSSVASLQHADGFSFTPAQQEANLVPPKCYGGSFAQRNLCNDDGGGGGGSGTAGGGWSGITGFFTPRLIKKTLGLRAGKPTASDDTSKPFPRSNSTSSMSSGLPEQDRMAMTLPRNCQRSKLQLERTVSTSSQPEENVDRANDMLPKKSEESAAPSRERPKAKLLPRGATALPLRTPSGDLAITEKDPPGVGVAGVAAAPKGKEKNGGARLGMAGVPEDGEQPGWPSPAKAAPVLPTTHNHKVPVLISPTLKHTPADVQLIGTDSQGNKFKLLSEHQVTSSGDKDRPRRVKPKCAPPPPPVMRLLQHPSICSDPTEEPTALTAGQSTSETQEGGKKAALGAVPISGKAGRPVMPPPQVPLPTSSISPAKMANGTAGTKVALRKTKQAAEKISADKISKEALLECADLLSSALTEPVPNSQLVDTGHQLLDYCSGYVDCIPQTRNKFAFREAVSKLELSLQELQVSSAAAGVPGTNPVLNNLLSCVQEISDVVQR
CAMK2G, sequence (Q13555 whole entry): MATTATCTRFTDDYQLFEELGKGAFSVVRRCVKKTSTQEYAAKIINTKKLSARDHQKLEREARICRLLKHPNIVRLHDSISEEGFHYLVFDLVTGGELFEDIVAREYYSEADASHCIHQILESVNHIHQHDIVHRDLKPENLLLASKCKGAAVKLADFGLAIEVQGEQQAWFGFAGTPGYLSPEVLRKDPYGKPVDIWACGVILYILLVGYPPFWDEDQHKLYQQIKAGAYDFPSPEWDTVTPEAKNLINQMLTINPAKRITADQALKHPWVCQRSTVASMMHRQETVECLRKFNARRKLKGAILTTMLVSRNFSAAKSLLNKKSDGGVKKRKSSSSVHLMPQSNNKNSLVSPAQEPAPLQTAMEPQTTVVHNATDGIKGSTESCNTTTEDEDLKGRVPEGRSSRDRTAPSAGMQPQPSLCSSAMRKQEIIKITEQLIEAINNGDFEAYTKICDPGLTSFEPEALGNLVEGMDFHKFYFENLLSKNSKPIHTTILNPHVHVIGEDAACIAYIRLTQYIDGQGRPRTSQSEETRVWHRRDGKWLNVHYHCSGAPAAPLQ

SMILES | inhibition at 1 µM [1] | inhibition at 1 µM [2] | inhibition at 1 µM [3] | inhibition at 1 µM [4] | inhibition at 1 µM [5] | inhibition at 1 µM [6] | inhibition at 1 µM [7] | inhibition at 1 µM [8]
CS(=O)(=O)Cc1ccc(Nc2nccc(-c3c(-c4cccc(NC(=O)C5CCCCC5)c4)nn4ncccc34)n2)cc1 [UNC10225159A] | 12% | 0% | 5% | 9% | 20% | 22% | 0% | 0%
Cn1cc(-c2cnc(N)c3c(-c4ccc5c(c4)CCN5C(=O)Cc4ccccc4)csc23)cn1 [UNC10225012A] | 0% | 13% | 81% | 24% | 0% | 4% | 3% | 11%
O=c1cc(N2CCOCC2)nc2n(Cc3cccc(Cl)c3Cl)c(C3CC3)nn12 [UNC10225469A] | 0% | 0% | 5% | 0% | 0% | 9% | 0% | 0%
COc1cccc(OC)c1C(=O)Nc1cccc(-c2nn3ccccc3c2-c2ccnc(Nc3cccc(F)c3)n2)c1 [UNC10225310A] | 0% | 0% | 100% | 32% | 0% | 0% | 0% | 13%
Cc1ccc(NC(=O)Nc2cccc(C(F)(F)F)c2)cc1 [UNC10225187A] | 0% | 4% | 3% | 0% | 0% | 17% | 0% | 25%
